Source: US7410974B2, “Halogenated Quinazolinyl nitrofurans as antibacterial agents” (Ulysses Pharmaceutical Products, Inc., priority 2003, dated 2008)
≈ marks a conversion by molar mass, not a printed value.

How the values were obtained:
S. aureus ATCC 29213 [1] = experiment: Time-kill curves; type: cell-based, Staphylococcus aureus; settings: at their respective MIC or a multiple of the MIC
Description: (§1) Time-kill curves. The bactericidal action of compounds was also evaluated over time (time-kill curve experiments). A bacterial inoculum of 1×10^5-1×10^7 Colony Forming Units (CFU)/ml was prepared. The inocula were verified and precisely determined by applying 10-μl drops of 10-fold dilutions onto Triptic Soy Agar plates. The CFU were counted after an incubation of 24 h at 35° C. Any experiment showing an inoculum that was more or less than the desired range of CFU/ml was rejected. Time-kill curve experiments were performed in 30 ml of MHB placed in 50-ml shaking flasks over a period of 24 hours. Test compounds and control antibiotics were added at time 0 hour and, at each time point, a sample was removed from flasks and the CFU determined by plate counts as described above. CFU from compound-treated cultures were compared to CFU collected from the control flask without antibiotic. Test compounds and control antibiotics were assayed at the MIC or a multiple of the MIC as determined by a broth microdilution technique as described above.

S. aureus MRSA COL [2] = experiment: Time-kill curves; type: cell-based, Staphylococcus aureus; settings: data not shown
Description: as §1

[3] = tested on: bacteria of the primary strain panel; experiment: MBCs compared with MICs over the strain panels; type: cell-based; settings: most of the time, over tested strains
Description: Minimal Inhibitory Concentration (MIC) Determination. Bacteria (primary strain panel, TABLE 1). Susceptibility tests were performed following the recommendations from the National Committee for Clinical Standards (NCCLS). The MICs were determined by a broth microdilution technique using a final volume of 100 μl of cation-adjusted Mueller Hinton Broth (MHBCA) and a bacterial inoculum of 10^5-10^6 Colony Forming Units (CFU)/ml. The inocula were verified and precisely determined by applying 10-μl drops of 10-fold dilutions onto Triptic Soy Agar plates. The CFU were counted after an incubation of 24 h at 35° C. Any experiment showing an inoculum that was more or less than 10^5-10^6 CFU/ml was rejected. Control antibiotics and test compounds were prepared at a concentration equivalent to 2-fold the highest desired final concentration. […] Microtiter plates were incubated during 24 h at 35° C. and growth was recorded by using a microtiterplate reader at 650 nm as well as by visual observation. […]
Minimal Bactericidal Concentration (MBC). After the microtiter plates were read for the determination of the MIC, a 10-μl sample of each clear well (at least 5 wells without visible growth) was applied onto TSA plates for viable counts determination.
Petri dishes were incubated at 35° C. for exactly 24 h and bacterial colonies were counted.

S. aureus strain Newman = experiment: S. aureus model of systemic infection in the mouse; type: in vivo, Staphylococcus aureus; settings: CD-1 female mice, i.p. 10^7 CFU S. aureus Newman; oral gavage 15 mg/kg at 1 hour post-infection; kidneys 5 hours after inoculation; FIG. 3
Description: In vivo efficacy. The antimicrobial activity of compounds was also evaluated in a S. aureus model of systemic infection in the mouse. To produce the systemic infection, CD-1 female mice (20 g) were injected intra-peritoneally with 10^7 CFU of S. aureus strain Newman suspended in 0.5 ml of endotoxin-free PBS containing 5% mucin (w/v). The compounds were administrated by oral gavage (15 mg/kg) at 1 hour post-infection and kidneys harvested and pooled, for each animal, 5 hours after bacterial inoculation. Tissues were homogenized in PBS and homogenates serially diluted and plated for CFU determination.

[4] = tested on: B. cereus, B. subtilis and B. atrophaeus; experiment: MIC broth microdilution, Bacillus species; type: cell-based; settings: three Bacillus species (B. cereus, B. subtilis and B. atrophaeus); data not shown
Description: Minimal Inhibitory Concentration (MIC) Determination. Bacteria (primary strain panel, TABLE 1). Susceptibility tests were performed following the recommendations from the National Committee for Clinical Standards (NCCLS). The MICs were determined by a broth microdilution technique using a final volume of 100 μl of cation-adjusted Mueller Hinton Broth (MHBCA) and a bacterial inoculum of 10^5-10^6 Colony Forming Units (CFU)/ml. The inocula were verified and precisely determined by applying 10-μl drops of 10-fold dilutions onto Triptic Soy Agar plates. The CFU were counted after an incubation of 24 h at 35° C. Any experiment showing an inoculum that was more or less than 10^5-10^6 CFU/ml was rejected. Control antibiotics and test compounds were prepared at a concentration equivalent to 2-fold the highest desired final concentration. Compounds were then diluted directly in the 96-well microtiter plates by serial 2-fold dilutions using a multichannel pipette. Microtiter plates were incubated during 24 h at 35° C. and growth was recorded by using a microtiterplate reader at 650 nm as well as by visual observation. The MIC was defined as the lowest concentration of compound yielding no visible growth. […] Fastidious bacteria. The medium used for Listeria monocytogenes, Neisseria meningitidis, and Campylobacter jejuni was MHBCA containing 2% laked horse blood. […]

S. aureus ATCC 29213 [5] = experiment: Minimal Bactericidal Concentration (MBC); type: cell-based; settings: Staphylococcus aureus, ATCC29213, 99.9% killing
Method in brief: (§2)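 Bactericidal endpoint follows the MIC read: aliquots of every well without visible growth, no fewer than five, go onto TSA. Incubation lasts exactly 24 h at 35° C. Surviving colonies are then counted.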

E. faecium ATCC 35667 = experiment: Minimal Bactericidal Concentration (MBC); type: cell-based; settings: Enterococcus faecium, ATCC35667, 99.9% killing
Method in brief: as §2

H. influenzae ATCC 49247 = experiment: Minimal Bactericidal Concentration (MBC); type: cell-based; settings: Haemophilus influenzae, ATCC49247, 99.9% killing
Method in brief: as §2

E. faecalis ATCC 29212 = experiment: Minimal Bactericidal Concentration (MBC); type: cell-based; settings: Enterococcus faecalis, ATCC29212, 99.9% killing
Method in brief: as §2

H. influenzae ATCC 49766 = experiment: Minimal Bactericidal Concentration (MBC); type: cell-based; settings: Haemophilus influenzae, ATCC49766, 99.9% killing
Method in brief: as §2

S. aureus MRSA COL [6] = experiment: Minimal Bactericidal Concentration (MBC); type: cell-based; settings: Staphylococcus aureus, 99.9% killing
Method in brief: as §2

[7] = tested on: S. saprophyticus ATCC 15305; experiment: Minimal Bactericidal Concentration (MBC); type: cell-based; settings: Staphylococcus saprophyticus, ATCC15305; S. saprophyticus ATCC 15305; 99.9% killing; read-out: MBC
Method in brief: as §2

[8] = tested on: S. epidermidis ATCC 12228; experiment: Minimal Bactericidal Concentration (MBC); type: cell-based; settings: Staphylococcus epidermidis, ATCC12228, 99.9% killing
Method in brief: as §2

E. coli ATCC 25922 = experiment: Minimal Bactericidal Concentration (MBC); type: cell-based; settings: Escherichia coli, ATCC25922, 99.9% killing
Method in brief: as §2

E. faecium VanA = experiment: MIC broth microdilution, antibiotic resistant strain panel; type: cell-based; settings: Enterococcus faecium; multi-resistant E. faecium VanA; read-out: MIC
Method in brief: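 MHBCA, 10^5-10^6 CFU/ml, 2-fold serial dilutions, 24 h at 35° C. Growth read at 650 nm and visually. MIC = lowest concentration with no visible growth.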

Q: With `O=[N+]([O-])c1ccc(C=Cc2nc(Nc3ccc(O)cc3)c3cc(F)ccc3n2)o1` [Compound V, 6-fluoro-2-[2-(5-nitro-2-furyl)vinyl]-4-(p-hydroxyanilino)-quinazoline] as the compound, how does the “bactericidal action compared with ciprofloxacin (time-kill)” value (S. aureus ATCC 29213 [1]) read?
A: superior to ciprofloxacin

Q: And the “bactericidal action (time-kill)” value (S. aureus MRSA COL [2])?
A: similarly bactericidal

Q: What about the “MBCs relative to the MICs” value [3] of the same compound?
A: equal to or only 2 to 4-fold higher than the MICs

Q: And the “viable bacteria in the kidneys” value (S. aureus strain Newman)?
A: reduced significantly

Q: What about the MIC [4] of the same compound?
A: 0.03 to 0.125 µg/mL (≈ 0.0765 to 0.319 µM)

Q: What about the MBC (S. aureus ATCC 29213 [5]) of the same compound?
A: 0.06 µg/mL (≈ 0.153 µM)

Q: And the MBC (E. faecium ATCC 35667)?
A: 0.25 µg/mL (≈ 0.637 µM)

Q: What about the MBC (H. influenzae ATCC 49247) of the same compound?
A: 0.06 µg/mL (≈ 0.153 µM)

Q: And the MBC (E. faecalis ATCC 29212)?
A: 0.03 µg/mL (≈ 0.0765 µM)

Q: And the MBC (H. influenzae ATCC 49766)?
A: 0.06 µg/mL (≈ 0.153 µM)

Q: What about the MBC (S. aureus MRSA COL [6]) of the same compound?
A: 0.06 µg/mL (≈ 0.153 µM)

Q: What about the MBC [7] of the same compound?
A: 0.03 to 0.06 µg/mL (≈ 0.0765 to 0.153 µM)

Q: And the MBC [8]?
A: 0.03 µg/mL (≈ 0.0765 µM)

Q: And the MBC (E. coli ATCC 25922)?
A: 0.5 µg/mL (≈ 1.27 µM)

Q: And the MIC (E. faecium VanA)?
A: 0.03 µg/mL (≈ 0.0765 µM)
